Experiments:
[1] = Inhibition of ERK phosphorylation in human NCI-H358 cells; format: cell-based
[2] = Inhibition of SOS1/KRAS (unknown origin) protein-protein interaction; set-up: species or system Homo sapiens
GTPase KRas [3] = target: GTPase KRas (Homo sapiens, UniProt P01116, G12C); assay: Inhibition of KRAS G12C mutant in human NCI-H358 cells incubated for 6 hrs by LC-MS/MS analysis; format: cell-based
[4] = Inhibition of ERK phosphorylation in human MIA PaCa-2 cells; format: cell-based
GTPase KRas [5] = target: GTPase KRas (Homo sapiens, UniProt P01116, G12V); assay: Binding affinity to GppNHp-tagged KRAS G12V mutant (unknown origin)
HT-1080 = assay: Cytotoxicity against human HT-1080 cells harboring NRAS Q61K mutant assessed as inhibition of cell growth incubated for 72 hrs by celltiter-glo luminescent cell viability assay; format: functional, cell-based; conditions: HT-1080, 72 h
[6] = test system: GTPase KRas (Homo sapiens), P01116 [G12C]; assay: Binding affinity to KRAS G12C mutant (unknown origin) assessed as covalent bond formation by measuring Kobs/[I] ratio
NIH3T3 = assay: Antiproliferative activity against mouse NIH3T3 cells transfected with HRAS G12V mutant assessed as inhibition of cell growth incubated for 14 days by dissecting microscope based colony counting assay; format: functional; conditions: NIH3T3, 336 h
SW480 = assay: Antitumor activity against human SW480 cells xenografted in athymic nude mouse assessed as inhibition of tumor growth at 80 mg/kg, po administered 5 days a week for 17 to 20 days relative to control; format: functional; conditions: time 17-20 day
GTPase HRas = GTPase HRas (Homo sapiens, UniProt P01112); assay: Inhibition of GST-tagged HRAS (1 to 166 residues) (unknown origin) assessed as inhibition of mSOS1 mediated nucleotide exchange by [35S]GTPgammaS based liquid scintillation counting method
[7] = Inhibition of Ras GTPase activation in HEK293T cells; format: cell-based, Homo sapiens

C=CC(=O)N1CCN(c2ncnc3c2CCN(c2cc(O)cc4ccccc24)C3)CC1
IC50 [1]: 7.6 µM

COc1cc2nc(C)nc(N[C@H](C)c3cc(N)cc(C(F)(F)F)c3)c2cc1O[C@H]1CCOC1
IC50 [2]: 0.005 µM

C=CC(=O)N1CCN(C(=O)CNc2cc(I)c(Cl)cc2O)CC1
IC50 (GTPase KRas [3]): 100 µM

COc1cc2ncnc(N[C@H](C)c3ccccc3)c2cc1OC
IC50 [2]: 1.6 µM

C=CC(=O)N1CCN(c2nc(=O)n(-c3c(C)ccnc3C(C)C)c3nc(-c4c(O)cccc4F)c(F)cc23)[C@@H](C)C1 [SOTORASIB]
IC50 [4]: 0.068 µM

O=C(NCC1COc2ccccc2O1)c1ccco1 (stereo unspecified)
Kd (GTPase KRas [5]): 235 µM

COc1nc(-c2cccc3c2OCCO3)ccc1Nc1ccc(CN(C)C)cc1
IC50 (HT-1080): 10 µM

C=CC(=O)N1CC(NC(=O)Cn2cc(C(=O)N3CCc4c(cccc4OC)C3)c3cc(Br)ccc32)C1
Ratio [6]: 230 M⁻¹ s⁻¹

Cc1ccc(NC(=S)NNc2c([N+](=O)[O-])cc(C(F)(F)F)cc2[N+](=O)[O-])cc1Cl
IC50 (NIH3T3): 0.5 µM
inhibition in vivo at 80 mg/kg (SW480): 40%
IC50 (GTPase HRas): 20 µM

Cc1[nH]c2cc(Cl)cc(Cl)c2c1CCN
EC50 [7]: 15.8 µM

C=CC(=O)N1CC(N2CCN(C(=O)CNc3cc(Cl)c(Cl)cc3O)CC2)C1
IC50 (GTPase KRas [3]): 50 µM

O=[N+]([O-])c1cc(C(F)(F)F)cc([N+](=O)[O-])c1NNC(=S)Nc1ccc(F)cc1
IC50 (NIH3T3): 1.4 µM
IC50 (GTPase HRas): 100 µM

C=CC(=O)N1CC(NC(=O)COc2ccc(Br)cc2NC(=O)c2cc(C)no2)C1
Ratio [6]: 2 M⁻¹ s⁻¹

From ChEMBL document CHEMBL5241099, “Targeting mutated GTPase KRAS in tumor therapies” (Eur J Med Chem, 2021)
